Measurements as given in publication PMC5650142, “GPR40 partial agonists and AgoPAMs: Differentiating effects on glucose and hormonal secretions in the rodent” (PLoS ONE, 2017).
“And” between values parts separate entries of the source, which are not always exact repeats. Equal values may be shown once.

Columns and labels:
[1] = test system: wild type C57BL/6 and GLP-1R-/- mice; assay: Mouse glucose tolerance test (IPGTT, wild type and GLP-1R-/- mice); format: in vivo; design: Blood Glucose Net AUC: unit not given here; settings: for Blood Glucose / Plasma Insulin: 30 mpk, 30 mg/kg; for Blood Glucose Net AUC: @ 30, individual animals
Description: Wild type C57BL/6 mice and GLP-1R^-/- mice were fed a high fat diet (D12492i, Research Diets) for 6 weeks prior to GTT. On the day of study, mice were fasted at 1 h post lights on, and body weights were measured. […] Mice were then dosed PO at a volume of 10 ml/kg with vehicle (0.5% methylcellulose), MK-2305 (a GPR40 partial agonist described in Hauge et al) at 10 mg/kg, or AP1 at 30 mg/kg. Dosages of MK-2305 and AP1 were administered at maximal efficacious doses as determined by acute dose titrations with efficacy determined via reduction in glucose during an IPGTT (data not shown). […] Blood glucose was measured again (time = 0) just prior to an intraperitoneal (IP) dextrose challenge of 1 g/kg at 10 ml/kg dose volume (Dextrose, Hospira Inc., Lake Forrest IL). A subset of vehicle treated mice was injected with 0.9% NaCl saline to serve as negative control. Blood glucose was then measured at 10, 20, 40, 60, and 120 min after challenge. To capture insulin secretion during the IPGTT, blood via tail vein was collected at t = - 60, 0, 10, 20, 40, 60 min post challenge.
Net AUC was calculated by subtracting the average AUC of the saline group from each groups’ total AUC.
(§1) Blood for insulin, glucagon, GLP-1, GIP, and PYY measurements was collected into K2EDTA Microtainer tubes (BD, Franklin Lakes, NJ) pre-treated with DPP4 inhibitor (Millipore, Billerica, MA) and cOmplete™ Protease Inhibitor Cocktail Tablets (Roche Diagnostics, Indianapolis, IN). Tubes were centrifuged for 10 minutes at 5000 RPM, and plasma was aliquotted for analysis. Plasma insulin levels were measured via EIA (Mesoscale Discovery ELISA Kit, Gaithersburg MD). Rat plasma total GLP-1 was measured using Total GLP-1 (ver.2) Assay Kit (Cat#: K150JVC). The measurement of active GLP-1 was carried out in a similar manner as that described for total GLP-1 assay with the exception that MSD Active GLP-1 (ver. 2) assay kit (Cat# K150JWC) was used. Rat plasma glucagon was measured using an in-house glucagon assay developed as a MSD format sandwich immunoassay (Merck & Co., Inc., MRL, Kenilworth, NJ USA). The antibody specificity was cross validated via mass- spec using procedures described in Lee et al. Briefly, MSD Streptavidin Gold plates were coated with 2 μg/ml biotin mouse monoclonal antibody generated to glucagon. Test samples were added to the plates and a separate Sulfo- tagged monoclonal antibody was used to detect the captured glucagon protein (2 μg/ml). The ELISA was carried out in the standard reagents in the MSD format. The plate was read on the SECTOR Imager 6000 Reader. Metabolic hormones GIP (Gastric Inhibitory Polypeptide) and PYY (Peptide YY) were measured in rat plasma using the Rat Metabolic Magnetic Bead Panel (EMD Millipore, Billerica, MA). The assay was performed according to manufacturer protocol.

[2] = test system: wild type and GPR40-/- mice; assay: Mouse incretin measurements (plasma glucagon, wild type and GPR40-/- mice); format: in vivo; settings: for Plasma Glucagon: @ 30, individual animals (Fig 6A)
Description: Wild type and GPR40-/- mice were weighed the day prior to dosing. Food was removed from mice at lights on. 2 hours later mice were dosed via oral gavage (PO) at a volume of 10 ml/kg with vehicle (0.5% methylcellulose), AP1 at 30 mg/kg, or AP3 at 30 mg/kg. At 60 minutes post dose, mice were euthanized via CO2 asphyxiation. Blood was collected via cardiac puncture.
as §1

[3] = GLP-1R-/- and wild type mice, MK-2305 10 mg/kg, AP1 30 mg/kg PO
[4] = KO mice, Time 0, individual animals
[5] = KO mice, Time 10, individual animals
[6] = KO mice, Time 20, individual animals
[7] = KO mice, Time 40, individual animals
[8] = KO mice, Time 60, individual animals
[9] = KO mice, Time -60, individual animals
[10] = WT mice, Time 0, individual animals
[11] = WT mice, Time 10, individual animals
[12] = WT mice, Time 20, individual animals
[13] = WT mice, Time 60, individual animals
[14] = WT mice, Time -60, individual animals

For `COc1ccc(F)c(-c2ccc([C@@H]3CCc4ccc([C@H](C5CC5)[C@H](C)C(=O)O)cc4O3)cc2)c1` [AP1], the “blood glucose excursion during IPGTT” value [1, 3] was “reduced”, the “insulin following dextrose challenge (IPGTT)” value [1, 3] was “increased insulin following the dextrose challenge in both knockout and wild type mice” and the “Blood Glucose” value [1, 4] was 84 mg/dL and 106 mg/dL and 108 mg/dL and 102 mg/dL and 90 mg/dL and 97 mg/dL and 104 mg/dL. For the same compound, the “Plasma Insulin” value [1, 4] was 1.042 ng/ml and 1.305 ng/ml and 1.695* ng/ml and 1.425 ng/ml and 1.092 ng/ml and 1.099 ng/ml and 1.131 ng/ml, the “Blood Glucose” value [1, 5] was 140 mg/dl and 143 mg/dl (2×) and 241 mg/dl and 103 mg/dl and 112 mg/dl and 152 mg/dl and the “Plasma Insulin” value [1, 5] was 1.818 ng/ml and 1.304 ng/ml and 8.134* ng/ml and 2.799 ng/ml and 1.233 ng/ml and 2.777 ng/ml and 1.836 ng/ml. For the same compound, the “Blood Glucose” value [1, 6] was 79 mg/dL and 107 mg/dL and 145 mg/dL and 126 mg/dL and 76 mg/dL and 80 mg/dL and 104 mg/dL, the “Plasma Insulin” value [1, 6] was 1.06 ng/ml and 0.804 ng/ml and 3.066* ng/ml and 1.963 ng/ml and 0.693 ng/ml and 1.694 ng/ml and 1.832 ng/ml and the “Blood Glucose” value [1, 7] was 58 mg/dL and 108 mg/dL. For the same compound, the “Plasma Insulin” value [1, 7] was 0.728 ng/ml and 0.449 ng/ml and 1.028* ng/ml and 0.546 ng/ml and 0.513 ng/ml and 0.552 ng/ml and 0.628 ng/ml, the “Blood Glucose” value [1, 8] was 75 mg/dL and 116 mg/dL and 106 mg/dL and 69 mg/dL and 92 mg/dL and 78 mg/dL and 110 mg/dL and the “Plasma Insulin” value [1, 8] was 0.445 ng/ml and 0.264 ng/ml and 0.373* ng/ml and 0.39 ng/ml and 0.327 ng/ml and 0.218 ng/ml and 0.377 ng/ml. For the same compound, the “Blood Glucose” value ([1]; KO mice, Time 120, individual animals) was 66 mg/dL and 102 mg/dL and 86 mg/dL and 103 mg/dL and 77 mg/dL and 71 mg/dL and 121 mg/dL, the “Blood Glucose” value [1, 9] was 190 mg/dl and 206 mg/dl (2×) and 172 mg/dl and 181 mg/dl and 204 mg/dl and 230 mg/dl and the “Plasma Insulin” value [1, 9] was 0.47 ng/ml and 0.396 ng/ml and 1.185* ng/ml and 0.53 ng/ml and 0.25 ng/ml and 0.347 ng/ml and 0.673 ng/ml. The “Blood Glucose” value ([1]; KO mice, Time -90, individual animals) was 196 mg/dL and 173 mg/dL and 164 mg/dL and 153 mg/dL and 203 mg/dL and 170 mg/dL and 187 mg/dL, the “Blood Glucose Net AUC” value ([1]; KO mice) was -16949 and -21574 and -17294 and -16394 and -19399 and -20469 and -21384 and the “Blood Glucose” value [1, 10] was 89 mg/dl and 78 mg/dl and 112 mg/dl and 100 mg/dl and 85 mg/dl (2×) and 93 mg/dl. The “Plasma Insulin” value [1, 10] was 3.656 ng/ml and 8.79 ng/ml and 40.989* ng/ml and 1.246 ng/ml and 3.561 ng/ml and 1.813 ng/ml and 4.832 ng/ml, the “Blood Glucose” value [1, 11] was 166 mg/dL and 152 mg/dL and 163 mg/dL and 220 mg/dL and 195 mg/dL and 184 mg/dL and 168 mg/dL and the “Plasma Insulin” value [1, 11] was 14.251 ng/ml and 18.912 ng/ml and 38.822* ng/ml and 7.869 ng/ml and 14.176 ng/ml and 5.575 ng/ml and 12.785 ng/ml. The “Blood Glucose” value [1, 12] was 91 mg/dL and 101 mg/dL and 128 mg/dL and 137 mg/dL and 134 mg/dL and 97 mg/dL and 94 mg/dL, the “Plasma Insulin” value [1, 12] was 4.859 ng/ml and 8.657 ng/ml and 36.643* ng/ml and 4.529 ng/ml and 12.495 ng/ml and 4.309 ng/ml and 7.23 ng/ml and the “Plasma Insulin” value ([1]; WT mice, Time 40, individual animals) was 1.713 ng/ml and 4.072 ng/ml and 12.598* ng/ml and 2.583 ng/ml and 4.314 ng/ml and 1.11 ng/ml and 3.089 ng/ml. For the same compound, the “Blood Glucose” value [1, 13] was 92 mg/dL and 102 mg/dL and 81 mg/dL and 87 mg/dL and 72 mg/dL and 96 mg/dL and 104 mg/dL, the “Plasma Insulin” value [1, 13] was 1.617 ng/ml and 3.058 ng/ml and 8.765* ng/ml and 1.2 ng/ml and 2.106 ng/ml and 0.602 ng/ml and 3.057 ng/ml and the “Blood Glucose” value ([1]; WT mice, Time 120, individual animals) was 76 mg/dl and 96 mg/dl (2×) and 126 mg/dl and 113 mg/dl and 92 mg/dl and 93 mg/dl. The “Blood Glucose” value [1, 14] was 175 mg/dL and 176 mg/dL and 194 mg/dL and 178 mg/dL and 190 mg/dL and 196 mg/dL and 226 mg/dL, the “Plasma Insulin” value [1, 14] was 0.973 ng/ml (2×) and 2.15 ng/ml and 4.52* ng/ml and 0.764 ng/ml and 1.183 ng/ml and 1.616 ng/ml and the “Blood Glucose” value ([1]; WT mice, Time -90, individual animals) was 168 mg/dL and 146 mg/dL and 183 mg/dL and 161 mg/dL and 151 mg/dL and 156 mg/dL and 176 mg/dL. For the same compound, the “Blood Glucose Net AUC” value ([1]; WT mice) was -13948 and -15303 and -14628 and -14263 and -12238 and -14078 and -14253, the “Plasma Glucagon” value ([2]; KO mice) was 13.34 pg/mL and 13.81 pg/mL and 52.65 pg/mL and 26.95 pg/mL and 36.14 pg/mL and 35.65 pg/mL and the circulating glucagon ([2]; WT mice, 30 mg/kg PO, 1h post dose) was “increase”. The “Plasma Glucagon” value ([2]; WT mice) was 101.77 pg/mL and 108.33 pg/mL and 114.33 pg/mL and 421.21 pg/mL and 183.75 pg/mL and 252.53 pg/mL and 120.41 pg/mL.
